According to patent publication US20030032676A1, “Drugs for treatment of cerebral injury and methods of use thereof” (priority 2001, published 2003):

Key:
recombinant nNOS = recombinant nNOS (Homo sapiens, UniProt P29475); details: recombinant nNOS and calcium dependent NOS activity in brain homogenates; from Osuka et al., 2001; cited from earlier work
lipid peroxidation = test: Lipid peroxidation in rat synaptosomal preparation (TBA-reactive substances); assay type: biochemical; details: initiated by 2.5 μM Fe2SO4 and 500 μM ascorbic acid; rat synaptosomes
Protocol: Lipid peroxides in sedimented synaptosomal membranes were analyzed by 2-thiobarbituric acid (TBA) with the TBA-reactive substances determined spectrophotometrically (Ohkawa et al., 1979). *P<0.05

nitrotyrosine = test: Nitrotyrosine production after rMCAo, Western blot of cerebral cortex extracts; assay type: in vivo, rat; details: 5 mg/kg; 68 kDa protein at 24 hours after rMCAo; P<0.05 compared to vehicle
reversible MCAo = test: Infarct volume by TTC staining after reversible MCAo (two hours of MCAo, then reperfusion); assay type: in vivo, rat; details: for Mean volume of the infarct: ±SEM, p<0.05
permanent MCAo = test: Infarct volume by TTC staining after permanent MCAo; assay type: in vivo, rat; details: 20 mg/kg, maintained by IP injections every 12 h
EAA release = test: Glutamate (EAA) release measured by microdialysis during and after ischemia (rMCAo); assay type: in vivo, rat; details: 5 mg/kg i.v. before rMCAO
[1] = test system: volume-regulated anion channels (VRACs); test: Blockade of volume-regulated anion channels in vitro

recombinant nNOS, sequence (P29475 whole entry, species assumed): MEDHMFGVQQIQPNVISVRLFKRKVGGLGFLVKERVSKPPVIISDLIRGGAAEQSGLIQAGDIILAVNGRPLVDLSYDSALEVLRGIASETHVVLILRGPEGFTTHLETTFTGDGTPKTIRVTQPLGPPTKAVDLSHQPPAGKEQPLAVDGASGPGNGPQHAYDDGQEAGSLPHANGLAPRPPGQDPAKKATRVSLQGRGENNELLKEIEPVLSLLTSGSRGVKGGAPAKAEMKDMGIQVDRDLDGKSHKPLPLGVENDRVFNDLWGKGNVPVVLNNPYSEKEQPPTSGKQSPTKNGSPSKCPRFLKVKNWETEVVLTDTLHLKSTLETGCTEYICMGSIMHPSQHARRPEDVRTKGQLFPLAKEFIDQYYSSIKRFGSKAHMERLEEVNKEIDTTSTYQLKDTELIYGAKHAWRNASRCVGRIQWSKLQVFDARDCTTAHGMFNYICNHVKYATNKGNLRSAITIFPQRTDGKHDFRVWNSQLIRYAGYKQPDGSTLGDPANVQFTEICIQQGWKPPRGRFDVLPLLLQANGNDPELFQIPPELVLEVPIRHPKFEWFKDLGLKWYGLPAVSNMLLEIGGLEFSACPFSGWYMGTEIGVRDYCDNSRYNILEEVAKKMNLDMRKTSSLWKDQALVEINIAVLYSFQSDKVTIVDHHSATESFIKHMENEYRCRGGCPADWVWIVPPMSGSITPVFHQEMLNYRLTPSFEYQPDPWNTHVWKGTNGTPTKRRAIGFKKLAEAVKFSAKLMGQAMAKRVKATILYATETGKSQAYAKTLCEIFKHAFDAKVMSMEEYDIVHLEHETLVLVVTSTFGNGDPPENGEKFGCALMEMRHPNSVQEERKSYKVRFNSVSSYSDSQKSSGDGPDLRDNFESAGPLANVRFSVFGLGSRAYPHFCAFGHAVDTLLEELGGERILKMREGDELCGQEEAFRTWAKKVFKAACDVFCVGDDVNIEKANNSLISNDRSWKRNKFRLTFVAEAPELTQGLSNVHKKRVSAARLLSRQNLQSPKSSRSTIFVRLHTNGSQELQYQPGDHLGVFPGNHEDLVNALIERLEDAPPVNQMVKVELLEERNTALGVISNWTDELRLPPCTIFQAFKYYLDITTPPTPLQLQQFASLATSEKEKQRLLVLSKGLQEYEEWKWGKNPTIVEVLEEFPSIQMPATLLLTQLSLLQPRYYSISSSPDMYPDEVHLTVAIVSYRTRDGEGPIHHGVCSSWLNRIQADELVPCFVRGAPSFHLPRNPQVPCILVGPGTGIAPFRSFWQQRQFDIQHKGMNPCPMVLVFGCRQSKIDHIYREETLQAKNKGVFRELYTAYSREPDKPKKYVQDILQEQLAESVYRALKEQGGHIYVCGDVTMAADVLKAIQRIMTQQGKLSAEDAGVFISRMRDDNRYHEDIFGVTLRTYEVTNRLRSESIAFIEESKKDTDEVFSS

In the case of `CCC(=C(c1ccccc1)c1ccc(OCCN(C)C)cc1)c1ccccc1` (stereo in doubt) [tamoxifen, (Z)-2-[4-(1,2-diphenyl-1-butenyl)phenoxy]-N,N-dimethylethanamine], the nNOS activity (recombinant nNOS) is listed as “inhibits nNOS”, the Lipid peroxidation (lipid peroxidation) is listed as “inhibits lipid peroxidation” and the “Nitrotyrosine levels after rMCAo” value (nitrotyrosine) is listed as “reduces nitrotyrosine levels”. For the same compound, the Infarct size (reversible MCAo; tamoxifen at two and four hours after the infarct, reperfusion) was “essentially identical to the mean for untreated control animals”, the “Mean volume of the infarct” value (reversible MCAo; tamoxifen given 1 hour after reperfusing after two hours of MCAo, TTC staining 72 h) was 33±13 mm^3 and the “Mean volume of the infarct” value (reversible MCAo; tamoxifen pretreatment, TTC staining 72 h after MCAo) was 41±21 mm^3. The Infarct volume (permanent MCAo) was “reduces infarct volumes”, the Contralateral glutamate levels (EAA release) was “no effect” and the “EAA (glutamate) release during ischemia” value (EAA release) was “reduces EAA release”. The VRAC blockade [1] was “potently blocks VRACs”.
